These results are taken from US8835375B2 (Applied Nanosystems B.V., priority 2006, dated 2014).

What is called half-life is how long it takes for the measured level to halve.

“Also recorded” adds a separate entry of the source. Read-outs that look alike come from different tables or passages of the source. Non-standard residues stand in square brackets, D forms with d. No end group written: not given here. Abu = CC[C@H](N)C(=O)O

Data set [1] can be described thus: plasma from rat under continuous intravenous infusion (1 mL/hour). The note with it: Sprague Dawley rat, up to 120 min.
For data set [2], the system named is Angiotensin Converting Enzyme (ACE). Kind of data set: Angiotensin Converting Enzyme (ACE) from Porcine kidney, SIGMA, 4 nM in 100 mM Tris-HCl, 300 mm NaCl, 10 μM Zn, pH 8.3. The settings on record: 37° C., up to 26 hour.
Data set [3] has the same test system. Kind of data set: Angiotensin Converting Enzyme (ACE) from Porcine kidney, SIGMA, 8 nM in 100 mM Tris-HCl, 300 mm NaCl, 10 μM Zn, pH 8.3. The settings on record: 37° C.
Data set [4] can be described thus: proteolytic resistance in pig liver homogenate. The data set is classed as in vitro ADME. The note with it: pig, pig liver homogenate; for metabolised at 3 h, 0.2 μmol angiotensin/mg liver homogenate: read-out: Degradation after 3 h (%). The protocol:
(§1) Angiotensin (wildtype or cyclised analogs, chemically produced [Cyc 4-7] Ang(1-7) or biologically produced [Cyc 4-7] Ang(1-8)) was added to homogenates of pig liver (0.2 μmol angiotensin/mg liver homogenate), pig kidney (0.2 μmol angiotensin/mg kidney homogenate), pig pancreas (0.8 μmol angiotensin/mg pancreas homogenate) or plasma (1 μmol angiotensin/ml) and incubated at 37° C., pH 7.4 or pH 5, for different time periods up to 30 hours. The enzymatic reaction was stopped by 100° C. for 5 min. The remaining amount of intact angiotensin was determined by RP-HPLC with C18-column, mobile phase gradient and 214 nm detection.

Data set [5] in a line: proteolytic resistance in pig kidney homogenate. The data set is classed as in vitro ADME. The note with it: pig, pig kidney homogenate; for metabolised at 3 h, 0.2 μmol angiotensin/mg kidney homogenate: read-out: Degradation after 3 h (%). As to the method: as §1
Data set [6] in a line: proteolytic resistance in pig pancreas homogenate. The format is in vitro ADME. The settings on record: for metabolised at 3 h, 0.8 μmol angiotensin/mg pancreas homogenate: read-out: Degradation after 3 h (%). The protocol: as §1
The nature of data set [7]: proteolytic resistance in plasma. The data set is classed as in vitro ADME. The note with it: pH 7.4, 37° C. As to the method: as §1
Data set [8] concerns the target T1, Angiotensin Converting Enzyme (ACE) from Porcine kidney (Sus scrofa, UniProt F1RRW5).
T1 construct: Angiotensin Converting Enzyme (ACE) from Porcine kidney, SIGMA; purchased SIGMA; host or cells: porcine kidney (tissue-derived)
T1 sequence (F1RRW5 34-1309): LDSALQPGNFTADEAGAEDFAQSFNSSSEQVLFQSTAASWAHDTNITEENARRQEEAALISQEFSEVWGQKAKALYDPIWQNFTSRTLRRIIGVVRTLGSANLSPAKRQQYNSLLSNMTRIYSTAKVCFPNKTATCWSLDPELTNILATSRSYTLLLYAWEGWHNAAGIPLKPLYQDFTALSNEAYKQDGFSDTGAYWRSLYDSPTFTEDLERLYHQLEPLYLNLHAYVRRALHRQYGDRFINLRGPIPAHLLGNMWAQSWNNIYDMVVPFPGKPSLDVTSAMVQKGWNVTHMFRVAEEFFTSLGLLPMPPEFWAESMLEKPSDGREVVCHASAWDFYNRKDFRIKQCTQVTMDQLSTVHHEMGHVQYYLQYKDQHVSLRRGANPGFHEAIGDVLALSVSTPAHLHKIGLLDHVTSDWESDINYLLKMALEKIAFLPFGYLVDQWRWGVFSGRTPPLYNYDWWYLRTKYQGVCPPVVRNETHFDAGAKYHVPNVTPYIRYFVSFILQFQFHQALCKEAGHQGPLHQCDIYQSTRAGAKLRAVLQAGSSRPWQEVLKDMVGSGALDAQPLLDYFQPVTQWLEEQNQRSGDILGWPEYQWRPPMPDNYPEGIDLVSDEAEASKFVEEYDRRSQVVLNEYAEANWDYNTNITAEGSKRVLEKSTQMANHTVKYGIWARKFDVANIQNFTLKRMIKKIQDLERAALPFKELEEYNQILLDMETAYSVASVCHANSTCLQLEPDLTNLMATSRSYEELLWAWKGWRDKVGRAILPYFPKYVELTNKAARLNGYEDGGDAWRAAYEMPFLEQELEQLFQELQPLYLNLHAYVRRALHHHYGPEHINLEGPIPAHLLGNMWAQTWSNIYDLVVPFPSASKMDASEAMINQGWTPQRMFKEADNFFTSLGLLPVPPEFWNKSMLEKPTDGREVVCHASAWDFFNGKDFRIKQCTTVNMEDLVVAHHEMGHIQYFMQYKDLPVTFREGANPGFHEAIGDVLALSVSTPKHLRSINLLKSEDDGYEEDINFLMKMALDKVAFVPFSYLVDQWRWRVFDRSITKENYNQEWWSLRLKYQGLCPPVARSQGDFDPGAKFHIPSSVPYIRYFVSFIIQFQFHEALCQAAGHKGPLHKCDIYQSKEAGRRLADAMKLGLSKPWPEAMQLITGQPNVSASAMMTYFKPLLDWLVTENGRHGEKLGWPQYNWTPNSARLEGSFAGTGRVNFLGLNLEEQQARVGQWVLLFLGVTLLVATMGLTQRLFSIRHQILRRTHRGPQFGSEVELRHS
Kind of data set: resistance against angiotensin converting enzyme (ACE). The settings on record: 50 μM peptide; for breakdown by ACE: 37° C., pH 8.3. The format is in vitro ADME. The protocol: Angiotensin Converting Enzyme (ACE) from Porcine kidney, SIGMA, was used at 4 nM final concentration, FIGS. 2A and 2B, or at 8 nM final concentration, FIGS. 2C and 2D. Natural Ang(1-7) was purchased from Bachem. All experiments were performed in duplicate in a waterbath at 37° C., incubations were performed in a buffer containing 100 mM Tris-HCl, 300 mm NaCl, 10 μM Zn, pH 8.3. Thioether-ring-containing angiotensin was obtained by bacterial production using L. lactis containing the nisin modification and transporter enzymes, NisBTC. Natural angiotensin(1-7), lanthionine-containing angiotensin(1-7) and methyllanthionine-containing angiotensin(1-7) were each used at a concentration of 50 μM. Both the lanthionine and the methyllanthionine variant had the thioether bridge between positions 4 and 7. The reaction was stopped by 100° C. for 5 minutes and put on ice. Samples were centrifuged for 10 min at 14000 rpm at 4° C. and quantified by RP-HPLC. Identification of the HPLC peaks was performed using Maldi TOF mass spectrometry. All points are the average of two measurements.

Data set [9] is described as follows: in vivo stability during continuous intravenous infusion in the rat (Maldi TOF of plasma). Details: species or system Sprague Dawley rat. The settings on record: i.v. infusion 1 mL/hour of 100 μM of each peptide together, sample taken at 120 min. The protocol: Rats (Sprague Dawley) were infused during 2 hours at a speed of 1 mL/hour with a solution containing simultaneously two compounds: both 100 μM natural Ang(1-7) as well as 100 μM methyllanthionine-containing angiotensin(1-7) with the thioether bridge between positions 4 and 7. Methyllanthionine-containing angiotensin(1-7) was prepared using L. lactis expressing lantibiotic enzymes as described in example 1. Maldi TOF analyses were performed on plasma samples as described in example 3. Undiluted sample (upper spectrum, mass peak of 826.06 Da at the arrow) and 100-fold diluted sample (lower spectrum, mass peak of 826.47 Da at the arrow) both gave a peak of the right mass, i.e. corresponding to intact methyllanthionine-containing angiotensin(1-7) (Theoretical mass M+H^+ equals 825.9758). […] In a control experiment mixing natural angiotensin(1-7) ex vivo with rat plasma, allowed subsequent detection of natural angiotensin(1-7) (not shown). Experimental details are mentioned in the text of example 3.
A male Sprague Dawley rat was kept under O2/Isoflurane (1.5-2%) narcosis throughout the study. A jugular vein catheter was applied and connected to a syringe containing 0.9% physiological salt solution. The syringe was mounted onto an infusion pump and the flow rate set to 1 mL/hour. […]

For data set [10] the following is noted: cited from earlier work.
Data set [11] concerns angiotensin-I converting enzyme (ACE). Kind of data set: angiotensin-I converting enzyme (ACE) of the vascular endothelium. The settings on record: cited from earlier work.
The test system of data set [12] is ACE. Kind of data set: In vivo. The note with it: cited from earlier work.
Data set [13] relates to angiotensinases. The data set is described as follows: in the body; angiotensinases located in red blood cells and the vascular beds of most tissues. The settings on record: cited from earlier work.
The mark [14] stands for this setting: pig, pig pancreas homogenate, pH 7.4, 37° C.

DRV[Abu]IHA: the not cleaved result in [1] was “intact peptide detected in the sample taken at 120 min; very stable”; in [2], “no degradation after 26 hour”; in data set [3] it was “no breakdown observed”.

Regarding `CC[C@H](C)[C@H](NC(=O)[C@H](Cc1ccc(O)cc1)NC(=O)[C@@H](NC(=O)[C@H](CCCNC(=N)N)NC(=O)[C@@H](N)CC(=O)O)C(C)C)C(=O)N[C@@H](Cc1c[nH]cn1)C(=O)N1CCC[C@H]1C(=O)O` [Ang(1-7), DRVYIHP, reference compound], the half-life at 0.2 μmol/mg liver homogenate turned out to be 153 min in data set [4] (pH 5.0, 37° C.) and 32 min in data set [4] (pH 7.4, 37° C.). Further, the metabolised at 3 h, 0.2 μmol angiotensin/mg liver homogenate in data set [4] (pH 5.0, 37° C.) was determined as 56%; in data set [4] (pH 7.4, 37° C.), 100%. The half-life at 0.2 μmol/mg kidney homogenate in data set [5] (pH 5.0, 37° C.) was determined as 28 min; in [5] (pH 7.4, 37° C.), 5 min. The metabolised at 3 h, 0.2 μmol angiotensin/mg kidney homogenate in data set [5] (pH 5.0, 37° C.) stood at 98%; in [5] (pH 7.4, 37° C.), 100%. Besides, in data set [6] (pH 5.0, 37° C.), the “Half-life (min)” value is recorded as “∞”. The metabolised at 3 h, 0.8 μmol angiotensin/mg pancreas homogenate was 16% in data set [6] (pig, pig pancreas homogenate, pH 5.0, 37° C.) and 81% in data set [6] (setting [14]). The half-life at 0.8 μmol/mg pancreas homogenate in data set [6] (setting [14]) was found to be 81 min. This compound also returned a half-life at 1 μmol/ml in data set [7] of 166 min. Further, in [7] (read-out: Degradation after 3 h (%)), the metabolised at 3 h, 1 μmol/ml turned out to be 55%. Also, the results for the “formation of Ang(1-5) by incubation with ACE” value in data set [8] (4 nM ACE) and in [8] (8 nM ACE) were “resulted in angiotensin(1-5) formation” and “emergence of angiotensin(1-5)”, respectively. The “breakdown by ACE” value was “completely broken down” in [8] (4 nM ACE, 26 hour incubation) and “rapidly broken down” in data set [8] (8 nM ACE). Besides, the “detection of intact peptide in plasma by Maldi TOF” value in data set [9] was “not detected at all”.

Regarding DRVYIHPFHL, the fragment found result in data set [10] was “Ang(1-9); also recorded: Ang(1-7); also recorded: Ang III (Ang(2-8)); also recorded: Ang IV (Ang(3-8))”. Further, the cleaved bond entry in data set [11] is given as “Phe8-His9”.

As to DRVYIHP, the cleaved bond result in data set [12] is on record as “I5-H6”; in [2], “I5-H6, major”; in [3], “I5-H6, major”.

Regarding Asp-Arg-Val-Tyr-Ile-His-Pro-Phe, the fragment found entry in [13] was “angiotensin III (Arg-Val-Tyr-Ile-His-Pro-Phe; or Ang(2-8)”.
